Measured values published in US9012443B2 (Amgen Inc., priority 2011, dated 2015).
Read-outs that look alike come from different tables or passages of the source.

What was measured:
Nav 1.7 = Nav 1.7 (Homo sapiens (Human), UniProt Q15858); assay: Nav 1.7 in vitro PX assay (PatchXpress whole cell voltage clamp); type: cell-based; settings: 293 cells, human Nav1.7, partially inactivated state; read-out: Nav1.7 PX IC50 IP
Method in brief: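 Partially inactivated channel state (holding potential for 20–50% inactivation) probed in human Nav1.7-transfected 293 cells by automated patch clamp, test pulse −10 mV for 20 msec.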

Nav 1.5 = Nav 1.5 (Homo sapiens (Human), UniProt Q14524); assay: Nav 1.5 in vitro PX assay (PatchXpress whole cell voltage clamp); type: cell-based
Sequence of Nav 1.5 (Q14524 whole entry): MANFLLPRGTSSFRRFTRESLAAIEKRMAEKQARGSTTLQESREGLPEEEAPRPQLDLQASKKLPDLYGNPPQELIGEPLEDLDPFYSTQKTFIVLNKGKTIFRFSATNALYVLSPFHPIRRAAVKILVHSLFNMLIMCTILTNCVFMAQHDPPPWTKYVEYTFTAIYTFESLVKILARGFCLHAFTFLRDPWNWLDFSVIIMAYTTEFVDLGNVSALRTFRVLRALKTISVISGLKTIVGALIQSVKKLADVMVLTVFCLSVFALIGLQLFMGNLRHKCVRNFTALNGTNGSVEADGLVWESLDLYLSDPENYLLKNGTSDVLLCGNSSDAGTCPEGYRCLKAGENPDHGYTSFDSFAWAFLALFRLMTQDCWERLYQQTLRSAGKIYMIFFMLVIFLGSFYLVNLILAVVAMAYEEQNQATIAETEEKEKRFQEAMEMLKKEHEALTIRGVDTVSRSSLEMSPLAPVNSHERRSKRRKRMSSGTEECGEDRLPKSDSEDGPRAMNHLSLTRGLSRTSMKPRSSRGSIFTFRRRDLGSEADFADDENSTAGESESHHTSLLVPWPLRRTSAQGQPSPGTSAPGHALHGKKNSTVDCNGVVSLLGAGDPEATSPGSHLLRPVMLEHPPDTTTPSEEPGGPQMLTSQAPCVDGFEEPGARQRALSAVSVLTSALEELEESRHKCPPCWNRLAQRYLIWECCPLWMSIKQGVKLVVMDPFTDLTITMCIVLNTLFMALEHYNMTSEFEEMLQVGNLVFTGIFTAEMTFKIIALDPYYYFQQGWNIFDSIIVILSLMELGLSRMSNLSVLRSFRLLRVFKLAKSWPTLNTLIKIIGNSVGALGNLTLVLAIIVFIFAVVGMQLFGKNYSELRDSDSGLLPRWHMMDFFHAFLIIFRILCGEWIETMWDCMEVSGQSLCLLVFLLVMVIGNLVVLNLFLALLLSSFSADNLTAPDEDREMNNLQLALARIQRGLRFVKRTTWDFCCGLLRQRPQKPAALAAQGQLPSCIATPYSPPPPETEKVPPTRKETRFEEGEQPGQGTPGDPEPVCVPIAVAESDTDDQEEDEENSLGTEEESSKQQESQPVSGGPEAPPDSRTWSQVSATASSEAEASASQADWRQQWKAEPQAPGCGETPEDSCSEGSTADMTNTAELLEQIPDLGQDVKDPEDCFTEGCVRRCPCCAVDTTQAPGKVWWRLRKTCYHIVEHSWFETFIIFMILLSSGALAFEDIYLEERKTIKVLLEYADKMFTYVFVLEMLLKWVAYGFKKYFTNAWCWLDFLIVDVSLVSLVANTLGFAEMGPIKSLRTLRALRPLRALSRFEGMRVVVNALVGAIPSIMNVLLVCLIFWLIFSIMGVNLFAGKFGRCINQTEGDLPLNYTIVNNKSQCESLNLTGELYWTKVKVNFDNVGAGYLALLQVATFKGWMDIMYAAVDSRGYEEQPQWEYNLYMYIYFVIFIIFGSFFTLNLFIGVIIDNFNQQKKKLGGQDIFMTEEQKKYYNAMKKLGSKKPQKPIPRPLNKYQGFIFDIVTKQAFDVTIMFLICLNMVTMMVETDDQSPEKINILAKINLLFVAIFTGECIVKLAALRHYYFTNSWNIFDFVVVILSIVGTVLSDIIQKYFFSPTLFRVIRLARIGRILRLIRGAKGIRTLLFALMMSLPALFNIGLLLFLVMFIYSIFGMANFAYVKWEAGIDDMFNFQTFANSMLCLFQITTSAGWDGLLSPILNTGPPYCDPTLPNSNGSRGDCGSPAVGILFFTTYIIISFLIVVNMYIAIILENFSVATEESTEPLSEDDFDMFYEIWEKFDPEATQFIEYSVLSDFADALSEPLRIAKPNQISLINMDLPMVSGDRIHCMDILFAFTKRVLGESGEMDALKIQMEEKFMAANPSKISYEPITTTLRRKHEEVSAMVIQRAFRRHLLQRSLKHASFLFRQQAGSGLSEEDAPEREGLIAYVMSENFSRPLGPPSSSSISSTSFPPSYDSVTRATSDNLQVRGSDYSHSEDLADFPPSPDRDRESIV
Method: Nav 1.5 In Vitro PX Assay
293 cells stably transfected with Nav 1.5 were recorded in whole cell voltage clamp mode with the PatchXpress automated electrophysiology system according the manufacturer's specifications (Molecular Devices, LLC, Sunnyvale, Calif.). Cells were held at a holding potential of −50 mV to inactivate sodium channels. To elicit sodium currents the voltage was changed to −120 mV to recover a portion of the channels, followed by delivery of test pulses of 20 msec duration to 0 mV, at 0.1 Hz. A single concentration of test compound was applied to cells for a duration of 5 minutes. Peak sodium current was measured at the end of the compound addition period to determine percent inhibition. A minimum of two cells were tested per concentration. IC50 curves were fitted to percent inhibition as a function of concentration.

[1] = 293 cells stably transfected with Nav 1.5, second part of table, read-out: Nav1.5 PX IC50

Sequence of Nav 1.7 (Q15858 whole entry): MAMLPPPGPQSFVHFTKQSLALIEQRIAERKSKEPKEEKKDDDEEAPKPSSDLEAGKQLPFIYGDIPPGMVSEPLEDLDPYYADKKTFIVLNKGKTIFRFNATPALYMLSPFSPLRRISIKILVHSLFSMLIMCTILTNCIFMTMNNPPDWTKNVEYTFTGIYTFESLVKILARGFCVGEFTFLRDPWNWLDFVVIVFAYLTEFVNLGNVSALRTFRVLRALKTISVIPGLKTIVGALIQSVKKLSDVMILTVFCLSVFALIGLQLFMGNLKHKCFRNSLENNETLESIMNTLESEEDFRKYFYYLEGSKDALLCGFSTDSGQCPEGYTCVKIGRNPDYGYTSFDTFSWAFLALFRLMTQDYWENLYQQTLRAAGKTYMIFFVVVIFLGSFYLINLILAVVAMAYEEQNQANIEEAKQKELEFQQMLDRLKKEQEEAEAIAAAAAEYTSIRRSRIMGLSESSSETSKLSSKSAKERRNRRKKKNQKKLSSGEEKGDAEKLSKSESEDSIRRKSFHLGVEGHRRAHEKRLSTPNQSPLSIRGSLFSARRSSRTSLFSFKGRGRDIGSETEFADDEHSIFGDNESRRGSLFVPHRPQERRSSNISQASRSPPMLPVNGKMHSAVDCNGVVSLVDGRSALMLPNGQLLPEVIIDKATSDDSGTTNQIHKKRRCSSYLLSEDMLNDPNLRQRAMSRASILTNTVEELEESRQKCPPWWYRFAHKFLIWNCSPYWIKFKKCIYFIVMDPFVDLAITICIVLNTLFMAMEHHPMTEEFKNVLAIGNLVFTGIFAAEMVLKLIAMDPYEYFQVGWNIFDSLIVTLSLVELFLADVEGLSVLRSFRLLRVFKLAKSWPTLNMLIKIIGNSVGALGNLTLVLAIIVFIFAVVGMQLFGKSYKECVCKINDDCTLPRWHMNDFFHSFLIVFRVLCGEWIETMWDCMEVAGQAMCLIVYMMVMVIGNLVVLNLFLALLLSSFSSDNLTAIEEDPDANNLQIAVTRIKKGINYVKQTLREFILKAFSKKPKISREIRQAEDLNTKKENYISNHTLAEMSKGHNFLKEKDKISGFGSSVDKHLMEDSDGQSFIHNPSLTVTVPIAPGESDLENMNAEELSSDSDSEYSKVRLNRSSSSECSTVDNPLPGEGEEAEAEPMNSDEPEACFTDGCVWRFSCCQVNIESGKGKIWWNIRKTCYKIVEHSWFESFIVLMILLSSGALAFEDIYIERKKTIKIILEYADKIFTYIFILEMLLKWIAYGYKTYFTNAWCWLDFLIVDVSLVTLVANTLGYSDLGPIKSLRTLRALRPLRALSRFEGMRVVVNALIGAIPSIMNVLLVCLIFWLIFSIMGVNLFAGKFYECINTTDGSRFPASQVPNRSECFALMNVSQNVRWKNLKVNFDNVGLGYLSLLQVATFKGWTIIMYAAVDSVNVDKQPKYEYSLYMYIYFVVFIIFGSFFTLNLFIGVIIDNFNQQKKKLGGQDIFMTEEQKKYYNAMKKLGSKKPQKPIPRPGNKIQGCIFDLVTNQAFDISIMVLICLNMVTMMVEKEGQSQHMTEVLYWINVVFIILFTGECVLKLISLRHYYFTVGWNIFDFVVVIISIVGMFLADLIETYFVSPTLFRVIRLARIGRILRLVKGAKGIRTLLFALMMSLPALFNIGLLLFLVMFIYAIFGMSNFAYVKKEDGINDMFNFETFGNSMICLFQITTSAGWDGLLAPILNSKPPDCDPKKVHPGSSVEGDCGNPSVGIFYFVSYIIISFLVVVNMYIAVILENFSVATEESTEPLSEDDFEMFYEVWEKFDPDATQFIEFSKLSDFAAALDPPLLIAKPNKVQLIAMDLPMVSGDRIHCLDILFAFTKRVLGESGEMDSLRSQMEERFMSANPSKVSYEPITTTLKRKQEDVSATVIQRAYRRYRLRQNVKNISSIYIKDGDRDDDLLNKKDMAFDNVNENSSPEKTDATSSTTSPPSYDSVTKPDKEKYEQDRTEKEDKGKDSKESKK

Structure (SMILES) | IC50 (Nav 1.7) [nM] | IC50 (Nav 1.5; [1]) [nM] | IC50 (Nav 1.5) [nM]
COc1cc(-c2ccc(F)c(F)c2)ccc1-c1nccc2cc(S(=O)(=O)Nc3ccncn3)ccc12 [Example 448, 1-(3′,4′-DIFLUORO-3-METHOXY-[1,1′-BIPHENYL]-4-YL)-N-(PYRIMIDIN-4-YL)ISOQUINOLINE-6-SULFONAMIDE] | 38 | > 30000 | –
COc1cc(C(F)F)c(F)cc1-c1ncnc2cc(S(=O)(=O)Nc3cscn3)ccc12 [Example 513, 4-(4-(difluoromethyl)-5-fluoro-2-methoxyphenyl)-N-(thiazol-4-yl)quinazoline-7-sulfonamide] | 783 | > 30000 | –
COc1cc(-c2ccc(F)cc2)ccc1-c1nccc2cc(S(=O)(=O)Nc3ccncn3)ccc12 [Example 350, 1-(4′-FLUORO-3-METHOXY-[1,1′-BIPHENYL]-4-YL)-N-(PYRIMIDIN-4-YL)ISOQUINOLINE-6-SULFONAMIDE] | 161 | > 30000 | –
COc1cc(-c2cccc(C(F)(F)F)c2)c(C#N)cc1-c1nccc2cc(S(=O)(=O)Nc3nncs3)ccc12 [Example 339, 1-(2-CYANO-5-METHOXY-3′-(TRIFLUOROMETHYL)-[1,1′-BIPHENYL]-4-YL)-N-(1,3,4-THIADIAZOL-2-YL)ISOQUINOLINE-6-SULFONAMIDE] | 31 | > 30000 | –
COc1cc(-c2cccc(F)c2F)ccc1-c1nccc2cc(S(=O)(=O)Nc3ccncn3)ccc12 [Example 444, 1-(2′,3′-difluoro-3-methoxy-[1,1′-biphenyl]-4-yl)-N-(pyrimidin-4-yl)isoquinoline-6-sulfonamide] | 185 | > 30000 | –
COc1cc(-c2ccc(Cl)c(F)c2)ccc1-c1nccc2cc(S(=O)(=O)Nc3ccncn3)ccc12 [Example 492, 1-(4′-CHLORO-3′-FLUORO-3-METHOXY-[1,1′-BIPHENYL]-4-YL)-N-(PYRIMIDIN-4-YL)ISOQUINOLINE-6-SULFONAMIDE] | 69 | > 30000 | –
COc1cc(Cl)c(Cl)cc1-c1nccc2cc(S(=O)(=O)Nc3nccs3)ccc12 [Example 177, 1-(4,5-DICHLORO-2-METHOXYPHENYL)-N-(THIAZOL-2-YL)ISOQUINOLINE-6-SULFONAMIDE] | 500 | > 30000 | –
COc1cc(-c2cc(F)cc(F)c2)ccc1-c1nccc2cc(S(=O)(=O)Nc3ccnc(C)n3)ccc12 [Example 370, 1-(3′,5′-DIFLUORO-3-METHOXY-[1,1′-BIPHENYL]-4-YL)-N-(2-METHYLPYRIMIDIN-4-YL)ISOQUINOLINE-6-SULFONAMIDE] | 813 | > 30000 | –
COc1cc(-c2cccc(F)c2)ccc1-c1nccc2cc(S(=O)(=O)Nc3nncs3)ccc12 [Example 354, 1-(3′-FLUORO-3-METHOXY-[1,1′-BIPHENYL]-4-YL)-N-(1,3,4-THIADIAZOL-2-YL)ISOQUINOLINE-6-SULFONAMIDE 2,2,2-TRIFLUOROACETATE] | 110 | > 30000 | –
COc1cc(C(F)(F)F)ccc1-c1ccnc2cc(S(=O)(=O)Nc3nccs3)c(C)cc12 [Example 326, 4-(2-METHOXY-4-(TRIFLUOROMETHYL)PHENYL)-6-METHYL-N-(THIAZOL-2-YL)QUINOLINE-7-SULFONAMIDE] | 660 | 2500 | –
COc1cc(-c2ccc(C)c(Cl)c2)ccc1-c1nccc2cc(S(=O)(=O)Nc3ccncn3)ccc12 [Example 494, 1-(3′-CHLORO-3-METHOXY-4′-METHYL-[1,1′-BIPHENYL]-4-YL)-N-(PYRIMIDIN-4-YL)ISOQUINOLINE-6-SULFONAMIDE] | 78 | > 30000 | –
COc1ccc(-c2cccc(F)c2)cc1-c1nccc2cc(S(=O)(=O)Nc3ncns3)ccc12 [Example 347, 1-(3′-FLUORO-4-METHOXY-[1,1′-BIPHENYL]-3-YL)-N-(1,2,4-THIADIAZOL-5-YL)ISOQUINOLINE-6-SULFONAMIDE] | 40 | > 30000 | –
COc1ccc(Cl)cc1-c1n[nH]c(=O)c2cc(S(=O)(=O)Nc3ncc(F)s3)ccc12 [Example 507, 1-(5-CHLORO-2-METHOXYPHENYL)-N-(5-FLUOROTHIAZOL-2-YL)-4-OXO-3,4-DIHYDROPHTHALAZINE-6-SULFONAMIDE] | 177 | > 30000 | –
COc1cc(C(F)F)c(Cl)cc1-c1ncnc2cc(S(=O)(=O)Nc3nccs3)ccc12 [Example 270, 4-(5-CHLORO-4-(DIFLUOROMETHYL)-2-METHOXYPHENYL)-N-(THIAZOL-2-YL)QUINAZOLINE-7-SULFONAMIDE] | 150 | 7440 | –
N#CCOc1ccccc1-c1nccc2cc(S(=O)(=O)Nc3nccs3)ccc12 [Example 375, 1-(2-(CYANOMETHOXY)PHENYL)-N-(THIAZOL-2-YL)ISOQUINOLINE-6-SULFONAMIDE 2,2,2-TRIFLUOROACETATE] | 544 | > 30000 | –
COc1cc(OCC(C)C)ccc1-c1nccc2cc(S(=O)(=O)Nc3ccncn3)ccc12 [Example 361, 1-(4-ISOBUTOXY-2-METHOXYPHENYL)-N-(PYRIMIDIN-4-YL)ISOQUINOLINE-6-SULFONAMIDE] | 463 | > 30000 | –

Structure (SMILES) | IC50 (Nav 1.7) [nM] | IC50 (Nav 1.5; [1]) [nM] | IC50 (Nav 1.5) [nM]
COc1ccc(-c2cccc(F)c2)cc1-c1nccc2cc(S(=O)(=O)Nc3nncs3)ccc12 [Example 345, 1-(3′-FLUORO-4-METHOXY-[1,1′-BIPHENYL]-3-YL)-N-(1,3,4-THIADIAZOL-2-YL)ISOQUINOLINE-6-SULFONAMIDE] | 75 | > 30000 | –
COc1cc(-c2cc(F)ccc2F)ccc1-c1nccc2cc(S(=O)(=O)Nc3ccncn3)ccc12 [Example 446, 1-(2′,5′-DIFLUORO-3-METHOXY-[1,1′-BIPHENYL]-4-YL)-N-(PYRIMIDIN-4-YL)ISOQUINOLINE-6-SULFONAMIDE] | 152 | > 30000 | –
COc1cc(C(F)F)c(OC)cc1-c1nccc2cc(S(=O)(=O)Nc3nccs3)ccc12 [Example 452, 1-(4-(DIFLUOROMETHYL)-2,5-DIMETHOXYPHENYL)-N-(THIAZOL-2-YL)ISOQUINOLINE-6-SULFONAMIDE] | 284 | > 30000 | –
COc1ccc(Cl)cc1-c1n[nH]c(=O)c2cc(S(=O)(=O)Nc3nccs3)ccc12 [Example 501, 1-(5-CHLORO-2-METHOXYPHENYL)-4-OXO-N-(THIAZOL-2-YL)-3,4-DIHYDROPHTHALAZINE-6-SULFONAMIDE] | 124 | – | > 30000
Cc1cc(Cl)ccc1-c1ncnc2cc(S(=O)(=O)Nc3ncns3)ccc12 [Example 532] | 996 | > 30000 | –
COc1cc(-c2cccc(F)c2)ccc1-c1ncnc2cc(S(=O)(=O)Nc3nncs3)ccc12 [Example 529, 4-(3′-FLUORO-3-METHOXY-[1,1′-BIPHENYL]-4-YL)-N-(1,3,4-THIADIAZOL-2-YL)QUINAZOLINE-7-SULFONAMIDE] | 258 | > 30000 | –
COc1ccc(-c2cccc(F)c2)cc1-c1n[nH]c(=O)c2cc(S(=O)(=O)Nc3ccncn3)ccc12 [Example 509, 1-(3′-FLUORO-4-METHOXY-[1,1′-BIPHENYL]-3-YL)-4-OXO-N-(PYRIMIDIN-4-YL)-3,4-DIHYDROPHTHALAZINE-6-SULFONAMIDE] | 218 | > 30000 | –
COc1ccc(Cl)cc1-c1nccc2cc(S(=O)(=O)Nc3ncns3)ccc12 [Example 346, 1-(5-CHLORO-2-METHOXYPHENYL)-N-(1,2,4-THIADIAZOL-5-YL)ISOQUINOLINE-6-SULFONAMIDE] | 132 | > 30000 | –
COc1ccc(-c2cccc(F)c2)cc1-c1ccnc2cc(S(=O)(=O)Nc3ccncn3)ccc12 [Example 321, 4-(3′-FLUORO-4-METHOXY-[1,1′-BIPHENYL]-3-YL)-N-(PYRIMIDIN-4-YL)QUINOLINE-7-SULFONAMIDE] | 251 | > 30000 | –
COc1cc(F)ccc1-c1ncnc2cc(S(=O)(=O)Nc3nccs3)ccc12 [Example 271, 4-(4-FLUORO-2-METHOXYPHENYL)-N-(THIAZOL-2-YL)QUINAZOLINE-7-SULFONAMIDE] | 450 | > 30000 | –
COc1cc(C(F)F)c(F)cc1-c1nc(C)nc2cc(S(=O)(=O)Nc3nccs3)ccc12 [Example 514, 4-(4-(difluoromethyl)-5-fluoro-2-methoxyphenyl)-2-methyl-N-(thiazol-2-yl)quinazoline-7-sulfonamide] | 383 | > 30000 | –
COc1ccc(Cl)cc1-c1n[nH]c(=O)c2cc(S(=O)(=O)Nc3ncns3)ccc12 [Example 505, 1-(5-CHLORO-2-METHOXYPHENYL)-4-OXO-N-(1,2,4-THIADIAZOL-5-YL)-3,4-DIHYDROPHTHALAZINE-6-SULFONAMIDE] | 258 | > 30000 | –
COc1cc(-c2cc(F)cc(F)c2)c(F)cc1-c1nccc2cc(S(=O)(=O)Nc3nncs3)ccc12 [Example 364, N-(1,3,4-THIADIAZOL-2-YL)-1-(2,3′,5′-TRIFLUORO-5-METHOXY-[1,1′-BIPHENYL]-4-YL)ISOQUINOLINE-6-SULFONAMIDE] | 36 | > 30000 | –
COc1cc(F)ccc1-c1nccc2cc(S(=O)(=O)Nc3nccs3)ccc12 [Example 405, 1-(4-FLUORO-2-METHOXYPHENYL)-N-(THIAZOL-2-YL)ISOQUINOLINE-6-SULFONAMIDE] | 442 | > 30000 | –
COc1cc(-c2ccc(F)c(Cl)c2)ccc1-c1nccc2cc(S(=O)(=O)Nc3ccncn3)ccc12 [Example 490, 1-(3′-CHLORO-4′-FLUORO-3-METHOXY-[1,1′-BIPHENYL]-4-YL)-N-(PYRIMIDIN-4-YL)ISOQUINOLINE-6-SULFONAMIDE] | 62 | > 30000 | –
